#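 Five compound concentrations were applied to cells in 96-well plates for 48 hours; endpoints were derived by simple linear interpolation of the resulting dose-response curve. GI50: concentration for 50% inhibition of growth. TGI: concentration producing complete growth inhibition.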
# How the values were obtained:
# Assay in all cases: growth of human tumour cells (NCI), 48 h
# RXF 393 renal = system: RXF 393 renal
# A498 renal = system: A498 renal
# OVCAR-8 ovarian = system: OVCAR-8 ovarian
# LOX IMVI melanoma = system: LOX IMVI melanoma
# HL-60(TB) leukemia = system: HL-60(TB) leukemia
# HOP-92 NSCLC = system: HOP-92 NSCLC
# SNB-19 CNS = system: SNB-19 CNS
# SR leukemia = system: SR leukemia
# CAKI-1 renal = system: CAKI-1 renal
# DU-145 prostate = system: DU-145 prostate
compound,measurement,setting,value
O=C(C(O)c1cn(Cc2ccccc2)c2ccccc12)N1CCCCC1 (stereo not given),TGI,RXF 393 renal,> 10 µM
same,TGI,A498 renal,> 100 µM
same,TGI,OVCAR-8 ovarian,> 100 µM
same,TGI,LOX IMVI melanoma,> 100 µM
same,TGI,HL-60(TB) leukemia,> 100 µM
same,TGI,HOP-92 NSCLC,> 100 µM
same,TGI,SNB-19 CNS,> 100 µM
same,TGI,SR leukemia,> 100 µM
Cc1cc2nc3c(C(OC4OC(CO)C(O)C(O)C4O)C(O)CO)nn(-c4ccccc4)c3nc2cc1C (stereo not given),TGI,RXF 393 renal,> 100 µM
same,TGI,A498 renal,> 100 µM
same,TGI,OVCAR-8 ovarian,> 100 µM
same,TGI,LOX IMVI melanoma,> 100 µM
same,TGI,SNB-19 CNS,> 100 µM
same,TGI,SR leukemia,> 100 µM
CCOc1ccccc1NC(=O)/C=C1\NC(=O)CS1,TGI,RXF 393 renal,> 100 µM
same,TGI,A498 renal,> 100 µM
same,TGI,OVCAR-8 ovarian,> 100 µM
same,TGI,CAKI-1 renal,> 100 µM
same,TGI,LOX IMVI melanoma,> 100 µM
same,TGI,HL-60(TB) leukemia,> 100 µM
same,TGI,HOP-92 NSCLC,> 100 µM
same,TGI,SNB-19 CNS,> 100 µM
Cc1cc2c(CC(=O)O)[nH]nc2c(C(=O)O)c1C,TGI,RXF 393 renal,> 100 µM
same,TGI,OVCAR-8 ovarian,> 100 µM
same,TGI,LOX IMVI melanoma,> 100 µM
same,TGI,HL-60(TB) leukemia,> 100 µM
same,TGI,HOP-92 NSCLC,> 100 µM
same,TGI,SNB-19 CNS,> 100 µM
same,TGI,SR leukemia,> 100 µM
C=CCCCCCCCCCCCC1CCC(CC)N1 (stereo not given),TGI,RXF 393 renal,16.5 µM
same,TGI,A498 renal,38.4 µM
same,TGI,CAKI-1 renal,25.4 µM
same,TGI,LOX IMVI melanoma,24.5 µM
same,TGI,HL-60(TB) leukemia,9.01 µM
same,TGI,SNB-19 CNS,36.3 µM
same,TGI,SR leukemia,7.12 µM
CCN(CC)c1ccc(N=Nc2ccc(-c3nc4cccnc4o3)cc2)cc1,TGI,RXF 393 renal,> 100 µM
same,TGI,A498 renal,> 100 µM
same,TGI,OVCAR-8 ovarian,> 100 µM
same,TGI,CAKI-1 renal,> 100 µM
same,TGI,LOX IMVI melanoma,> 100 µM
same,TGI,HL-60(TB) leukemia,> 100 µM
same,TGI,HOP-92 NSCLC,> 100 µM
same,TGI,SNB-19 CNS,> 100 µM
CCCC(=O)c1c(NOC2OC(COC(C)=O)C(OC(C)=O)C(OC(C)=O)C2OC(C)=O)nc(OC)n(C)c1=O (stereo not given),TGI,RXF 393 renal,> 100 µM
same,TGI,OVCAR-8 ovarian,> 100 µM
same,TGI,LOX IMVI melanoma,> 100 µM
same,TGI,SNB-19 CNS,> 100 µM
same,TGI,SR leukemia,> 100 µM
N#CC(C#N)=C(N)/C(C#N)=C\c1ccnc2ccccc12,TGI,RXF 393 renal,35.3 µM
same,TGI,OVCAR-8 ovarian,55.7 µM
same,TGI,CAKI-1 renal,92.1 µM
same,TGI,HL-60(TB) leukemia,4.69 µM
same,TGI,HOP-92 NSCLC,88 µM
same,TGI,SNB-19 CNS,> 100 µM
same,TGI,SR leukemia,58 µM
Cc1c(CCCl)c(=O)n2c([nH]c3ccccc32)c1C#N,TGI,RXF 393 renal,3.8 µM
same,TGI,OVCAR-8 ovarian,3.15 µM
same,TGI,DU-145 prostate,5.63 µM
same,TGI,CAKI-1 renal,2.77 µM
same,TGI,LOX IMVI melanoma,2.02 µM
same,TGI,HL-60(TB) leukemia,> 10 µM
same,TGI,HOP-92 NSCLC,2.82 µM
same,TGI,SR leukemia,> 10 µM
COc1ccc(-c2c(C3=NCCN3)nnn2-c2ccccc2)cc1,TGI,RXF 393 renal,> 100 µM
same,TGI,A498 renal,> 100 µM
same,TGI,OVCAR-8 ovarian,> 100 µM
same,TGI,CAKI-1 renal,> 100 µM
same,TGI,LOX IMVI melanoma,> 100 µM
same,TGI,HL-60(TB) leukemia,> 100 µM
same,TGI,HOP-92 NSCLC,> 100 µM
same,TGI,SNB-19 CNS,> 100 µM
same,TGI,SR leukemia,> 100 µM
COC(=O)c1c(-c2ccccc2)cc2c3cc(-c4ccccc4)c(C(=O)OC)n3c3ccccc3n12,TGI,RXF 393 renal,> 94.7 µM
same,TGI,A498 renal,> 100 µM
same,TGI,OVCAR-8 ovarian,> 100 µM
same,TGI,CAKI-1 renal,> 100 µM
same,TGI,LOX IMVI melanoma,> 100 µM
same,TGI,HL-60(TB) leukemia,> 100 µM
same,TGI,SNB-19 CNS,> 100 µM
CCCCC#COP(=O)(OCC)OCC,TGI,A498 renal,> 100 µM
same,TGI,OVCAR-8 ovarian,> 100 µM
same,TGI,CAKI-1 renal,> 100 µM
same,TGI,LOX IMVI melanoma,> 100 µM
same,TGI,HL-60(TB) leukemia,> 100 µM
same,TGI,SNB-19 CNS,> 100 µM
same,TGI,SR leukemia,> 100 µM
COc1ccc2c(c1)C(=O)CC(N)C2 (stereo not given),TGI,RXF 393 renal,> 100 µM
same,TGI,OVCAR-8 ovarian,> 100 µM
same,TGI,DU-145 prostate,> 100 µM
same,TGI,CAKI-1 renal,> 100 µM
same,TGI,LOX IMVI melanoma,> 100 µM
same,TGI,HL-60(TB) leukemia,> 100 µM
same,TGI,HOP-92 NSCLC,> 100 µM
same,TGI,SNB-19 CNS,> 100 µM
same,TGI,SR leukemia,> 100 µM
COC1=CC23C=CC1[C@@H](c1ccccc1)C2=C(C)C(=O)N3C(=O)NC1CCCCC1 (stereo not given in full),TGI,RXF 393 renal,14.8 µM
same,TGI,A498 renal,64.1 µM
same,TGI,OVCAR-8 ovarian,64.6 µM
same,TGI,CAKI-1 renal,45.1 µM
same,TGI,LOX IMVI melanoma,31.2 µM
same,TGI,HL-60(TB) leukemia,> 100 µM
same,TGI,HOP-92 NSCLC,47.5 µM
same,TGI,SNB-19 CNS,> 100 µM
same,TGI,SR leukemia,56.8 µM
COc1cc(-c2cc(=O)c3cc4c(cc3[nH]2)OCO4)cc(OC)c1OC,GI50,RXF 393 renal,22.1 µM
same,TGI,RXF 393 renal,60.5 µM
same,TGI,OVCAR-8 ovarian,> 100 µM
same,TGI,CAKI-1 renal,> 100 µM
same,TGI,LOX IMVI melanoma,> 100 µM
same,TGI,HL-60(TB) leukemia,> 100 µM
same,TGI,HOP-92 NSCLC,69 µM
same,TGI,SNB-19 CNS,> 100 µM
same,TGI,SR leukemia,> 100 µM
C=CCNC(=S)N1CC(C)C(=O)Nc2ccccc21 (stereo not given),TGI,RXF 393 renal,> 100 µM
same,TGI,OVCAR-8 ovarian,> 100 µM
same,TGI,LOX IMVI melanoma,> 100 µM
same,TGI,HL-60(TB) leukemia,> 100 µM
same,TGI,SNB-19 CNS,> 100 µM
same,TGI,SR leukemia,> 100 µM
O=c1cc(-c2ccccc2)[nH]c2cccc(S)c12,TGI,RXF 393 renal,0.469 µM
same,TGI,OVCAR-8 ovarian,2.37 µM
same,TGI,DU-145 prostate,> 100 µM
same,TGI,HL-60(TB) leukemia,> 100 µM
same,TGI,HOP-92 NSCLC,> 100 µM
same,TGI,SNB-19 CNS,> 100 µM
same,TGI,SR leukemia,> 100 µM
CC(=O)N/C(=C\c1ccc(/C=C(\NC(C)=O)c2nc3ccc(Cl)cc3[nH]2)cc1)c1nc2ccccc2[nH]1,TGI,A498 renal,> 100 µM
same,TGI,OVCAR-8 ovarian,> 100 µM
same,TGI,CAKI-1 renal,> 100 µM
same,TGI,HOP-92 NSCLC,> 100 µM
same,TGI,SNB-19 CNS,> 100 µM
same,TGI,SR leukemia,> 100 µM
CC(=O)NC1=N/C(=C/c2cc([N+](=O)[O-])ccc2O)CN1C,TGI,OVCAR-8 ovarian,> 100 µM
same,TGI,DU-145 prostate,> 100 µM
same,TGI,CAKI-1 renal,> 100 µM
same,TGI,LOX IMVI melanoma,> 100 µM
same,TGI,HL-60(TB) leukemia,> 100 µM
same,TGI,HOP-92 NSCLC,> 100 µM
same,TGI,SNB-19 CNS,> 100 µM
CC(C)=CC(C(O)c1ccccc1)S(=O)(=O)c1nccn1C (stereo not given),TGI,RXF 393 renal,> 100 µM
same,TGI,OVCAR-8 ovarian,> 100 µM
same,TGI,LOX IMVI melanoma,> 100 µM
same,TGI,HL-60(TB) leukemia,> 100 µM
same,TGI,HOP-92 NSCLC,> 100 µM
same,TGI,SNB-19 CNS,> 100 µM
same,TGI,SR leukemia,> 100 µM
CCOC(=O)CCC(=O)C1c2cccc(O)c2C(=O)c2c(O)cccc21,TGI,RXF 393 renal,2.08 µM
same,TGI,OVCAR-8 ovarian,3.4 µM
same,TGI,CAKI-1 renal,4.99 µM
same,TGI,LOX IMVI melanoma,1.89 µM
same,TGI,HL-60(TB) leukemia,0.657 µM
same,TGI,HOP-92 NSCLC,3.23 µM
same,TGI,SNB-19 CNS,3.7 µM
same,TGI,SR leukemia,7.29 µM
NC(N)=N/N=C(/c1nc2ccc([N+](=O)[O-])cc2[nH]c1=O)C(O)c1ccco1 (stereo not given),TGI,RXF 393 renal,> 100 µM
same,TGI,A498 renal,> 100 µM
same,TGI,OVCAR-8 ovarian,> 100 µM
same,TGI,CAKI-1 renal,> 100 µM
same,TGI,LOX IMVI melanoma,> 100 µM
same,TGI,HL-60(TB) leukemia,> 100 µM
same,TGI,HOP-92 NSCLC,> 100 µM
same,TGI,SNB-19 CNS,> 100 µM
same,TGI,SR leukemia,> 100 µM
O=c1cc(-c2ccccc2)[nH]c2cc(Cl)cc(Cl)c12,TGI,RXF 393 renal,51.2 µM
same,TGI,OVCAR-8 ovarian,83.5 µM
same,TGI,CAKI-1 renal,> 100 µM
same,TGI,LOX IMVI melanoma,> 100 µM
same,TGI,HL-60(TB) leukemia,> 100 µM
same,TGI,HOP-92 NSCLC,58.3 µM
same,TGI,SR leukemia,> 100 µM
C=CCc1cc2cccc(OC)c2oc1=O,TGI,A498 renal,> 100 µM
same,TGI,OVCAR-8 ovarian,> 100 µM
same,TGI,CAKI-1 renal,> 100 µM
same,TGI,LOX IMVI melanoma,> 100 µM
same,TGI,HL-60(TB) leukemia,> 100 µM
same,TGI,HOP-92 NSCLC,> 100 µM
same,TGI,SNB-19 CNS,> 100 µM
same,TGI,SR leukemia,> 100 µM
O=C1C(Br)=C[C@H]2C3C=CC(Br)(C3=O)[C@@H]12 (stereo not given in full),TGI,RXF 393 renal,27.3 µM
same,TGI,A498 renal,37.9 µM
same,TGI,OVCAR-8 ovarian,26 µM
same,TGI,CAKI-1 renal,24 µM
same,TGI,HL-60(TB) leukemia,23 µM
same,TGI,HOP-92 NSCLC,29.7 µM
same,TGI,SNB-19 CNS,32.6 µM
CCN(CC)CCC1CC/C(=C\c2ccc(OC)cc2)C1=O (stereo not given),TGI,RXF 393 renal,> 100 µM
same,TGI,A498 renal,> 100 µM
same,TGI,OVCAR-8 ovarian,> 100 µM
same,TGI,CAKI-1 renal,> 100 µM
same,TGI,LOX IMVI melanoma,> 100 µM
same,TGI,HL-60(TB) leukemia,> 100 µM
same,TGI,HOP-92 NSCLC,> 100 µM
same,TGI,SNB-19 CNS,> 100 µM
same,TGI,SR leukemia,> 100 µM
COP1(=O)CC2C(Cl)(Cl)C2(C)C1 (stereo not given),TGI,RXF 393 renal,> 100 µM
same,TGI,OVCAR-8 ovarian,> 100 µM
same,TGI,LOX IMVI melanoma,> 100 µM
same,TGI,HL-60(TB) leukemia,> 100 µM
same,TGI,SNB-19 CNS,> 100 µM

# Source: PubChem BioAssay (NCI)
